Experiments:
stroke mice [1] = assay: Adhesive removal test (sensorimotor function) in stroke mice; format: in vivo, mouse; settings: post-stroke treatment
Method: This test was performed on days 7, 14, 21, 28, 35 and 42 post-stroke in order to examine the sensorimotor deficits. Each mice was placed into transparent cylinder (15 cm diameter) during a habituation period of 1 min Thereafter, two different colored adhesive labels (2.5 mm diameter made by punch, Tough Spots) were applied with equal pressure on each mouse's forepaw. The times required to remove the adhesive labels were measured with a maximum of 2 min. To achieve an optimum level of performance, mice should be trained for 4 days before surgery.

stroke mice [2] = assay: DCX+ neuroblast formation in post-stroke mice; format: in vivo, mouse; settings: post-stroke treatment; vs vehicle
stroke mice [3] = assay: Computer automated open field locomotion analysis in stroke mice; format: in vivo, mouse
Method: First, the efficacy of post-stroke ISP treatment in the C57BL/6 mouse was tested using a proximal middle cerebral artery occlusion (pMCAO) model. Three cohorts of mice (n=59) were subjected to MCAO surgery to induce a large stroke in both striatal and cortical tissue, mimicking a human “malignant” stroke, which tends to be fatal in humans. […]
To test the timing of ISP administration relative to the time of injury, and the corresponding effect on recovery, adult C57bl/6J female and male mice were subjected to transient proximal MCAO surgery (35 min) as described above. […]
Mice motor activities were assessed using Accuscan activity monitor (Columbus, OH, USA) one day before and 3, 7, 14, 21, 35 and 42 days after tMCAO as previously described. […] To avoid observer bias, this locomotor test was automatically monitored by the computer and software. Locomotor activity was calculated by automated Versamax software (Accuscan, Columbus, OH, USA). The following variables were measured: (A) horizontal activity (the total number of beam interruptions that occurred in the horizontal sensors); (B) total distance traveled (cm, the distance traveled by the animals); (C) Vertical activity (the total number of beam interruptions that occurred in vertical sensors).

stroke mice [4] = assay: Anterograde BDA tracing and quantification of corticospinal tract axonal sprouting; format: in vivo, mouse; settings: post-stroke treatment; crossed CST fibers at cervical spinal cord, BDA tracing
Method: Four weeks after tMCAO, mice were anesthetized with 1.5% isoflurane/oxygen mixture and stabilized in a stereotaxic frame. 1.5 μl of the biotin dextran amine (BDA, MW10,000; 10% in PBS, invitrogen) were injected at three sites in the contralesional cortex (coordinates: 1. A/P 0.0 mm, M/L −2 mm, D/V −1 mm; 2.A/P 0.5 mm, M/L-1.5 mm, D/V-1 mm; 3. A/P 0.5 mm, M/L −2 mm, D/V −1 mm) Two weeks later, brain and cervical spinal cord were harvested after cardiac perfusion with PBS followed by 4% paraformaldehyde. After post-fix overnight in 4% paraformaldehyde and cryoprotection in 20% and 30% sucrose, coronal brain sections and transverse spinal cord sections were cut at 30 μm thickness. For the detection of BDA, sections were rinsed in 0.1M PB and incubated in 0.3% H2O2 for 30 min to inactivate endogenous peroxidase, followed by incubation for 2 hours with a Vectastain® ABC kit (Vector Laboratories, Burlingame, CA, USA). Staining was developed with 2,3′ diaminobenziine tetrahydrochloride (0.5 mg/ml in 0.1M PB). The number and length of midline-cross BDA+ fiber were assessed in a blinded manner Sections were analyzed with ImageJ software.

adult NSCs = assay: Migration of neural stem cells on CSPGs (aggrecan coating); format: cell-based, mouse; settings: 2.5 μM peptide, 21 hours, with or without aggrecan coating
Source text: Primary stem cells were obtained from C57BL/6J mice at 5 weeks of age. After euthanization, whole brains were immediately harvested and dissected under microscope to obtain the subventricular zone (SVZ) tissue. After mechanical dissociation with a stab knife, the tissue fragment were processed using trypsin and resuspended as individual cells at a density of 10^4 cell/cm^2 in neurobasal media with growth factors (epidermal growth factor and basic fibroblast growth factor) (NBM-GF). Subsequent passaging of cells were performed using Accutase® (innovative #AT-104, CA, USA) every 7 days until the cells established viable lines, and cellular debris was naturally diminished after each passage. At day 4 of each passage, the proliferating spheres were fed with NBM-GF. We used neurospheres at passage P3-P8 in this study.
To determine the effects of CSPGs on the migration of neural stem cells in vitro, flat-bottom 48-well plates were first coated with poly-L-lysine overnight, followed by a rinsing with water. Aggrecan (A1960, sigma) were coated onto the 48-well plates at the concentration of 1 ug/ml and 10 ug/ml diluted in sterile water overnight, followed by a rinsing with water. The control wells contained poly-L-lysine alone. […] The inner area and total area of neurospheres were measured by ImageJ software. […]

stroke mice [5] = assay: Barnes maze test (cognitive function) in stroke mice; format: in vivo, mouse; settings: 4 weeks after stroke; vs vehicle
Source text: The spatial memory of ischemic mice was examined using Barnes maze (Stoelting Company, WoodDale, IL, USA) 28 days after tMCAO. The maze consists of a 91.5 cm diameter circular platform with 20 holes around the perimeter. Mice were discouraged to idle around aimlessly by blowing fans and a bright light above the platform. At day 0, mice were gently guided to enter the target hole after removing the start chamber. At day 1, mice were trained for 4 trials in 2 sessions to find the escape tunnel placed under the target hole. Once mice entered the target hole, the hole was covered and mice were allowed to stay in it for 2 min. If mice could not locate the target hole within 5 min, mice were guided by the observer to enter the target hole. At day 2, one trial was run and video-taped until the mouse getting into the target hole or stopped at 5 mins when the mouse could not locate the target hole. Time spent to locate the escaping hole and error numbers in finding the hiding hole made by the mouse were measured by an observer in a blinded fashion.

stroke mice [6] = assay: Quantification of brain atrophy in stroke animals; format: in vivo, mouse; settings: post-stroke 6-week brain sections
Method: The post-stroke 6-week brain sections (25 μm) were mounted on PLL-coated slides. The sections were rehydrated in KH2PO4 buffer (pH 4.5) for 10 min, and then stained in pre-warm 10% Giemsa solution for 30 min at 42° C. After a brief rinse with KH2PO4 buffer, sections were dehydrated in absolute ethanol, cleared in xylene and mounted with Histoseal. A set of serial sections was imaged by Path Scan Enabler IV slide scanner. Contralateral and ipsilateral brain areas were quantified using ImageJ software. The calculation formula of atrophy rate is as follows: Σ (contralateral brain area−ipsilateral brain area)/Σ contralateral brain area×100%.

WT primary NSCs = assay: Neural stem cell differentiation assay, neurite outgrowth (MAP2 immunostaining); format: cell-based, mouse; settings: 2.5 μM peptide, differentiated in vitro for 5 days
Method: Briefly, glass coverslips in an untreated 24-well plate were coated with poly-ornithine and laminin After splitting neurospheres during passaging, individual cells were plated at a density of 10^4 cells/cm^2 in 500 μl of NBM-GF. Every other day, 250 μl of media was removed from each well and 300 μl of fresh NBM-GF was added. When the attached cell reached approximately 70% confluency (around day 5), all NBM-GF within each well was gently removed and immediately replaced with neurobasal media without growth factor (NBM) with ISP peptide (2.5 μM) or scramble peptide (2.5 μM). Each well was fed daily by removing 250 μl of the media and adding 300 μl of the media containing ISP or scramble peptide. On Day 5 after complete replacement of the NBM-GF, the wells were fixed with 4% paraformaldehyde for 15 min at room temperature and stored in phosphate-buffered saline at 4° C. until staining.
Cells cultured on coverslip were fixed in 4% PFA for 15 min, permeabilized in 0.1% Triton-X100 for 10 min and then incubated in 10% normal goat serum for 1 hour. […] Three coverslips were analyzed per condition. Random selections of field in each coverslip were chosen and imaged by Stereo Investigator Software (MBF Bioscience, Williston, VT, USA), and quantitative data was obtained by using NIH ImageJ software.

stroke mice [7] = assay: Survival of stroke mice after tMCAO with post-stroke treatment; format: in vivo, mouse
Method: First, the efficacy of post-stroke ISP treatment in the C57BL/6 mouse was tested using a proximal middle cerebral artery occlusion (pMCAO) model. Three cohorts of mice (n=59) were subjected to MCAO surgery to induce a large stroke in both striatal and cortical tissue, mimicking a human “malignant” stroke, which tends to be fatal in humans. Stroke mice were subjected to T2 weighted MRI scanning to determine the size of the stroke injury and were grouped blindly into two equally distributed groups that received either daily vehicle (5% DMSO) or daily ISP (20 μg/mouse/day or 30 μg/mouse/day S.C. injections) treatment starting from 24 hours after stroke onset for 6 weeks.
Transient middle cerebra artery occlusion (tMCAO) was induced in male C57BL/6 mice (12 weeks old, 25-30 g) by intraluminal occlusion of the left MCA for 45 min with silicone rubber-coated monofilament (Cat. 602212PK10Re and 602312PK10Re, Doccol Corporation). Briefly, mice were anesthetized with isoflurance. Body temperature was monitored and maintained at 37±0.5° C. by homeothermic blanket control unit (Harvard apparatus). To minimize animal's pain, mice were subcutaneously injected with buprenorphine. […] To ensure consistent and successful blockage of MCA, regional cerebral blood flow was monitored in all stroke animals by Laser Doppler flowmetry (PeriFlux system 5000, Perimed, Sweden). […]

Row | Sequence | speed of tape removal, affected limb (stroke mice [1]; affected front paw, vs vehicle) | tape removal, unaffected limb (stroke mice [1]; unaffected front paw) | DCX+ neuroblasts near the lateral ventricle and adjacent striatal tissues (stroke mice [2]) | locomotor function (total distance travelled, total horizontal activity, total vertical activity) (stroke mice [3]; treatment from 24 h post-stroke, 2-4 weeks after stroke, vs vehicle) | open field locomotion performance (total distance, horizontal activity, vertical activity), delayed treatment (stroke mice [3]; treatment initiated 7 days post stroke, 1 mg/kg/day for 3 weeks, by week four) | axonal sprouting from contralateral corticospinal tract (stroke mice [4]) | migration of adult NSCs (normalized migration index) (adult NSCs) | error trials to find the escape hole in the Barnes maze (stroke mice [5]) | time to find the escape hole in the Barnes maze (stroke mice [5]) | chronic atrophy of brain after stroke (stroke mice [6]) | neurite outgrowth (neurite length) in differentiated NSCs (WT primary NSCs) | survival of stroke animals over time (stroke mice [7]; continuous post-stroke treatment started 24 hours post-stroke, tMCAO mice, vehicle 44.828%) | survival rate of stroke animals (stroke mice [7]; treatment initiated at 24 hours post stroke, daily S.C., vs vehicle)
1 | GRKKRRQRRRCDMAEHMERLKANDSLKLSQEYESI [ISP] | significantly improved the speed | without any obvious effects | enhanced | significantly increased | significant effects in improved performance | enhanced | alleviates the inhibition of CSPGs on NSCs migration | less error trials | significantly less time | decreases the chronic atrophy of brain | consistently increased neurite outgrowth | 67.742% | improve the survival rate of stroke animals significantly
2 | GRKKRRQRRRCIREDDSLMLYALAQEKKESNMHES [scrambled ISP peptide, reference compound] | – | – | – | – | – | – | – | – | – | – | no effects | – | –

— patent US12138300B2, “Methods and compositions for inducing neural plasticity” (CASE WESTERN RESERVE UNIVERSITY, priority 2018, dated 2024)
